The results in this text go back to PubChem BioAssay AID1745844 (Carcinogenic Potency Database (CPDB), 2022).

Activity calls are given as the source filed them. How the calls were made is not given here.

For the series, the system named is rodent lifetime carcinogenesis bioassay, tumor incidence TD50. In words: carcinogenic potency in animals, long-term in vivo studies, CPDB compilation (AID 1745844).

In the case of `O=S(=O)(O)O`, the TD50 is 115 mg/kg/day (inactive) (hamster, strain Syrian Golden, females, in drinking water, site: cecum, lesion: one or several types, types not named, dosed 108 weeks, study length 108 weeks); 124 mg/kg/day (inactive) (hamster, strain Syrian Golden, females, in drinking water, site: thyroid gland, lesion: adenoma, dosed 108 weeks, study length 108 weeks); 136 mg/kg/day (inactive) (hamster, strain Syrian Golden, males, in drinking water, site: cecum, lesion: one or several types, types not named, dosed 119 weeks, study length 119 weeks); 87.5 mg/kg/day (hamster, strain Syrian Golden, males, in drinking water, site: liver, lesion: hepatocellular adenoma, dosed 91 weeks, study length 91 weeks); 2590 mg/kg/day (hamster, strain Syrian Golden, males, in drinking water, site: liver, lesion: hepatocellular adenoma, dosed 104 weeks, study length 104 weeks); 464 mg/kg/day (hamster, strain Syrian Golden, males, in drinking water, site: liver, lesion: hepatocellular carcinoma, dosed 91 weeks, study length 91 weeks). Further, the TD50 was 181 mg/kg/day (hamster, strain Syrian Golden, males, in drinking water, site: liver, lesion: hepatocellular carcinoma, dosed 104 weeks, study length 104 weeks); 2580 mg/kg/day (hamster, strain Syrian Golden, males, in drinking water, site: liver, lesion: histiocytoma, malignant, dosed 104 weeks, study length 104 weeks); 2590 mg/kg/day (hamster, strain Syrian Golden, males, in drinking water, site: liver, lesion: reticulum-cell sarcoma, dosed 104 weeks, study length 104 weeks); 87.5 mg/kg/day (hamster, strain Syrian Golden, males, in drinking water, site: liver, lesion: several types, types named in the paper, dosed 91 weeks, study length 91 weeks); 109 mg/kg/day (mouse, strain C3H (MTV+), females, in drinking water, site: lung, lesion: adenoma, dosed 92 weeks, study length 92 weeks); 6.27 mg/kg/day (mouse, strain CBA/Cb/Se, females, by gavage, site: liver, lesion: hepatoma, dosed 36 weeks, study length 74 weeks). Also, the TD50 runs as follows: (mouse, strain CBA/Cb/Se, females, by gavage, site: lung, lesion: several types, types named in the paper, dosed 36 weeks, study length 74 weeks) 3.35 mg/kg/day; (mouse, strain CBA/Cb/Se, males, by gavage, site: liver, lesion: hepatoma, dosed 36 weeks, study length 84 weeks) 8.43 mg/kg/day; (mouse, strain CBA/Cb/Se, males, by gavage, site: lung, lesion: several types, types named in the paper, dosed 36 weeks, study length 84 weeks) 5.1 mg/kg/day; (mouse, strain ICRC x C3H (Jax), females, by gavage, site: lung, lesion: adenocarcinoma, dosed 73 weeks, study length 73 weeks) 10.3 mg/kg/day; (mouse, strain ICRC x C3H (Jax), males, by gavage, site: lung, lesion: adenocarcinoma, dosed 73 weeks, study length 73 weeks) 79.5 mg/kg/day; (mouse, strain Swiss albino, females, in drinking water, site: lung, lesion: adenocarcinoma, dosed 95 weeks, study length 95 weeks) 146 mg/kg/day. The TD50 (mouse, strain Swiss albino, females, in drinking water, site: lung, lesion: adenoma, dosed 95 weeks, study length 95 weeks) is 26.7 mg/kg/day; the TD50 (mouse, strain Swiss albino, females, in drinking water, site: lung, lesion: several types, types named in the paper, dosed 95 weeks, study length 95 weeks) was 23.8 mg/kg/day; the TD50 (mouse, strain Swiss albino, males, in drinking water, site: liver, lesion: several types, types named in the paper, dosed 94 weeks, study length 94 weeks) was 78.4 mg/kg/day; the TD50 (mouse, strain Swiss albino, males, in drinking water, site: lung, lesion: adenocarcinoma, dosed 94 weeks, study length 94 weeks) was 74.2 mg/kg/day; the TD50 (mouse, strain Swiss albino, males, in drinking water, site: lung, lesion: adenoma, dosed 94 weeks, study length 94 weeks) was 23.1 mg/kg/day; the TD50 (mouse, strain Swiss albino, males, in drinking water, site: lung, lesion: several types, types named in the paper, dosed 94 weeks, study length 94 weeks) was 18.7 mg/kg/day. Besides, the TD50 by setting is: (mouse, strain Swiss, both sexes, by gavage, site: lung, lesion: adenocarcinoma, dosed 95 weeks, study length 95 weeks) 9.81 mg/kg/day; (mouse, strain Swiss, both sexes, by gavage, site: lung, lesion: one or several types, types not named, dosed 54 weeks, study length 54 weeks) 3.92 mg/kg/day; (rat, strain Cb/Sc, females, by gavage, site: lung, lesion: several types, types named in the paper, dosed 68 weeks, study length 94 weeks) 42.4 mg/kg/day; (rat, strain Cb/Sc, males, by gavage, site: liver, lesion: several types, types named in the paper, dosed 68 weeks, study length 94 weeks) 39.4 mg/kg/day; (rat, strain Cb/Sc, males, by gavage, site: lung, lesion: several types, types named in the paper, dosed 68 weeks, study length 94 weeks) 60.1 mg/kg/day. In addition, the carcinogen call runs as follows: (hamster, strain Syrian Golden, males, in drinking water, site: liver, lesion: hemangioma, dosed 119 weeks, study length 119 weeks) “negative (inactive)”; (mouse, strain AKR, females, in drinking water, site: liver, lesion: one or several types, types not named, dosed 69 weeks, study length 69 weeks) “negative (inactive)”; (mouse, strain AKR, females, in drinking water, site: lung, lesion: one or several types, types not named, dosed 69 weeks, study length 69 weeks) “negative (inactive)”; (mouse, strain AKR, males, in drinking water, site: liver, lesion: hemangioma, dosed 69 weeks, study length 69 weeks) “negative (inactive)”; (mouse, strain AKR, males, in drinking water, site: lung, lesion: adenoma, dosed 69 weeks, study length 69 weeks) “negative (inactive)”; (mouse, strain ICRC x C3H (Jax), females, by gavage, site: liver, lesion: one or several types, types not named, dosed 73 weeks, study length 73 weeks) “negative (inactive)”. Also, the carcinogen call (mouse, strain ICRC x C3H (Jax), males, by gavage, site: liver, lesion: one or several types, types not named, dosed 73 weeks, study length 73 weeks) was “negative (inactive)” and the carcinogen call (mouse, strain Swiss albino, females, in drinking water, site: liver, lesion: hemangioma, dosed 95 weeks, study length 95 weeks) is “negative (inactive)”.

For the molecule `CCC(C)[C@H]1O[C@]2(CC[C@@H]1C)CC1C[C@@H](C/C=C(\C)[C@@H](O[C@H]3C[C@H](OC)[C@@H](OC4C[C@H](OC)[C@@H](O)[C@H](C)O4)[C@H](C)O3)[C@@H](C)/C=C/C=C3\CO[C@@H]4[C@H](O)C(C)=C[C@@H](C(=O)O1)[C@]34O)O2` (some centres not stated) (tested in a mixture with another compound), the carcinogen call (rat, strain Wistar, males, in feed, site: forestomach, lesion: one or several types, types not named, dosed 52 weeks, study length 52 weeks) is “negative (inactive)”.

`CC(=O)N[C@@H](CC(C)C)C(=O)N[C@@H](CC(C)C)C(=O)NC(C=O)CCCN=C(N)N` (some centres not stated): the TD50 is, setting by setting: (mouse, strain A/JJms, females, in feed, site: liver, lesion: liver-cell tumor, type B, dosed 68 weeks, study length 68 weeks) 933 mg/kg/day (inactive); (mouse, strain A/JJms, females, in feed, site: lung, lesion: several types, types named in the paper, dosed 68 weeks, study length 68 weeks) 229 mg/kg/day (inactive); (mouse, strain A/JJms, males, in feed, site: liver, lesion: several types, types named in the paper, dosed 68 weeks, study length 68 weeks) 55.8 mg/kg/day; (mouse, strain A/JJms, males, in feed, site: lung, lesion: several types, types named in the paper, dosed 68 weeks, study length 68 weeks) 422 mg/kg/day (inactive).
